Measured values taken from ChEMBL document CHEMBL1201862, “PubChem BioAssay data set” (2004).
Calls of active or inactive are those of the source.

Test system: not listed separately
Assay: Luminescence Cell-Based Dose Confirmation HTS to Identify Activators of 5'UTR Stem-Loop Driven Alpha-Synuclein mRNA Translation in H4 Neuroglioblastoma Cells. [Related pubchem assays: 1829 (Project Summary), 1814 (Primary HTS)]
Format: functional
Conditions: not given

| Compound | EC50 |
| --- | --- |
| Nc1nc2c(C(=O)N3CCOCC3)nnn2c2ccccc12 | 0.138 µM (active) |
| Cc1cc(N2CCOCC2)nc2cc(O)ccc12 | 16.2 µM (active) |
| COc1ccc(OS(=O)(=O)Cc2ccccc2)cc1 | > 120 µM (not active) |
| Cc1ccc(NC(=O)C2=C(O)c3sccc3N(C)S2(=O)=O)cc1 | 13.2 µM (active) |
| Cc1cc(-n2c(C)cc(C(=O)COc3ccccc3[N+](=O)[O-])c2C)no1 | 13.5 µM (active) |
| COc1ccc(O)c(C(=O)c2cnn(-c3ccccn3)c2)c1 | 15.4 µM (active) |
| COc1ccccc1/C=C/C(=O)N1CCC(c2ccccc2)C1 (configuration not stated) | 9.44 µM (active) |

Test system: not listed separately
Assay: Luminescence Cell-Based Dose Response HTS to Identify Activators of Luciferase Translation or Activity in H4 […] Cells. [Related pubchem assays: 1829 (Project Summary), 1814 (Primary HTS)]
Format: functional
Conditions: not given

| Compound | EC50 |
| --- | --- |
| Nc1nc2c(C(=O)N3CCOCC3)nnn2c2ccccc12 | 0.203 µM (active) |
| Cc1cc(N2CCOCC2)nc2cc(O)ccc12 | 6.94 µM (active) |
| COc1ccc(OS(=O)(=O)Cc2ccccc2)cc1 | 10.8 µM (active) |
| Cc1ccc(NC(=O)C2=C(O)c3sccc3N(C)S2(=O)=O)cc1 | 27.2 µM (active) |
| Cc1cc(-n2c(C)cc(C(=O)COc3ccccc3[N+](=O)[O-])c2C)no1 | 44.9 µM (active) |
| COc1ccc(O)c(C(=O)c2cnn(-c3ccccn3)c2)c1 | 43.5 µM (active) |
| COc1ccccc1/C=C/C(=O)N1CCC(c2ccccc2)C1 (configuration not stated) | 27.8 µM (active) |

Test system: H4
Assay: Luminescence Cell-Based Dose Response HTS to Identify Activators of 5'UTR Stem-Loop Driven Prion Protein mRNA Translation in H4 Neuroglioblastoma Cells. [Related pubchem assays: 1829 (Project Summary), 1814 (Primary HTS)]
Format: functional
Conditions: Homo sapiens

| Compound | EC50 |
| --- | --- |
| Nc1nc2c(C(=O)N3CCOCC3)nnn2c2ccccc12 | 26.9 µM (active) |
| Cc1cc(N2CCOCC2)nc2cc(O)ccc12 | > 120 µM (not active) |
| COc1ccc(OS(=O)(=O)Cc2ccccc2)cc1 | 57.5 µM (active) |
| Cc1ccc(NC(=O)C2=C(O)c3sccc3N(C)S2(=O)=O)cc1 | > 120 µM (not active) |
| Cc1cc(-n2c(C)cc(C(=O)COc3ccccc3[N+](=O)[O-])c2C)no1 | > 120 µM (not active) |
| COc1ccc(O)c(C(=O)c2cnn(-c3ccccn3)c2)c1 | 9.17 µM (active) |
| COc1ccccc1/C=C/C(=O)N1CCC(c2ccccc2)C1 (configuration not stated) | 23.1 µM (active) |

Target: T1, Heat shock factor protein 1 (Mus musculus, UniProt P38532)
T1 sequence (P38532 whole entry): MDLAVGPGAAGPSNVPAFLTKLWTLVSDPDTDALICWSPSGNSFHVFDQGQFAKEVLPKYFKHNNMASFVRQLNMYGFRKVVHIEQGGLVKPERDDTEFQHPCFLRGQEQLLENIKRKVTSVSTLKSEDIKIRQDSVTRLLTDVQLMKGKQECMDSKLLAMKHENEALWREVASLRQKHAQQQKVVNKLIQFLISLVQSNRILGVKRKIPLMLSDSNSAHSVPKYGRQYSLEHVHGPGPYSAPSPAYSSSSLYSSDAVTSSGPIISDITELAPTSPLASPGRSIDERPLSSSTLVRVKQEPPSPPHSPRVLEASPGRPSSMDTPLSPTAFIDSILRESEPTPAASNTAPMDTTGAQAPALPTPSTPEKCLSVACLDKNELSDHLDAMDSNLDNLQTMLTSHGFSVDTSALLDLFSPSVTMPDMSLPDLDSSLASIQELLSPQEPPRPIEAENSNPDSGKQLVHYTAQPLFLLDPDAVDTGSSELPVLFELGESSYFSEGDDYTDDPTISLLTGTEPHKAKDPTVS
Assay: decrease of HSF1-responsive luciferase luminescence – cell-based, NIH3T3, dose retest, confirmation (AID 2382);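 note: NIH3T3 fibroblasts with HSF1-driven luciferase reporter stressed by proteasome inhibitor MG132; luminescence from HSF1-driven luciferase expression after 8 hours of MG132 stress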
Format: functional
Conditions: not given

| Compound | EC50 |
| --- | --- |
| COc1cccc(N2CCN(Cc3nnnn3C3CCCCC3)CC2)c1 | > 195 µM (not active) |

Target: Induced myeloid leukemia cell differentiation protein Mcl-1 (Homo sapiens, UniProt Q07820)
Sequence (Q07820 whole entry): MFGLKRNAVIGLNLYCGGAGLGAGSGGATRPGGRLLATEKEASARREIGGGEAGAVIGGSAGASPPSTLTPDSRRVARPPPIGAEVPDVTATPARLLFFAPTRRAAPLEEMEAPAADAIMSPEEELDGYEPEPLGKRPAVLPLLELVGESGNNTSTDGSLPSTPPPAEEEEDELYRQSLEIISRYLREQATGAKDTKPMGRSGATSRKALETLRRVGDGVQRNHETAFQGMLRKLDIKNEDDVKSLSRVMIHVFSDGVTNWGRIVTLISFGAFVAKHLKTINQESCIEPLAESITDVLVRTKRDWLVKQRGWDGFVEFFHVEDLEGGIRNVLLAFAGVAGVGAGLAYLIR
Assay: not given
Format: functional
Conditions: not given

| Compound | IC50 |
| --- | --- |
| CC(C(=O)Nc1cc([N+](=O)[O-])ccc1Cl)N1CCN(c2ccc(O)cc2)CC1 (configuration not stated) | 4.33 µM (not active) |
| CC(C)c1ccc(Nc2nnc(SCC(=O)c3nnc(-c4ccccc4)o3)s2)cc1 | 2.72 µM (active) |

Target: T1, Heat shock factor protein 1
Assay: enhancement of HSF1-driven luciferase signal – cell-based, NIH3T3, luminescence, dose retest, confirmation (AID 435004);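 note: stress induced by proteasome inhibitor MG132 added 30 min after compound; luciferase reporter driven by HSF1 response element in NIH3T3 cells; actives raise luminescence as potentiators of the MG132 stress response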
Format: functional
Conditions: not given

| Compound | EC50 |
| --- | --- |
| O=c1[nH]c(CCl)nc2cc(-c3ccc(F)cc3)sc12 | 32.1 µM (active) |

Target: FAD-linked sulfhydryl oxidase ALR (Homo sapiens, UniProt P55789)
Sequence (P55789 whole entry): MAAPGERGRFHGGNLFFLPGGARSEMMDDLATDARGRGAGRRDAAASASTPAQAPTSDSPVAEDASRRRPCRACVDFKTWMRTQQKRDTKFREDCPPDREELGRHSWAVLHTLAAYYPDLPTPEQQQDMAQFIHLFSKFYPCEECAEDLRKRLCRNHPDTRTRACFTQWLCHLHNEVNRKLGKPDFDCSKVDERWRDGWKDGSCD
Assay: ALR-catalysed DTT oxidation blockers – biochemical, H2O2 detection, luminescence, cherry-pick, dose response (AID 493248)
Conditions: not given

| Compound | AC50 |
| --- | --- |
| COc1cccc(N2CCN(Cc3nnnn3C3CCCCC3)CC2)c1 | 5.12 µM (active) |
| Cc1occc1C(=O)N1CCCC(Nc2ccc(C(C)C)cc2)C1 (configuration not stated) | 3.97 µM (active) |
| C=CCn1c(S)nnc1-c1ccccc1[N+](=O)[O-] | 1.69 µM (active) |
| CC(=O)NCCC(=O)Nc1sc2c(c1-c1nc3ccccc3[nH]1)CCCC2 | 4.69 µM (active) |
| CN(CCCNC(=O)c1cccc(N2CCCC2=O)c1)c1ccccc1 | 0.823 µM (active) |
| Cc1ccc(NC(=O)N/C=C/c2ccco2)cc1C | 1.7 µM (active) |
| CN(C)c1ccc(CN(C(=O)c2ccco2)C2CCS(=O)(=O)C2)cc1 (configuration not stated) | 4.16 µM (active) |
| COc1cc(/C=N/NC(=O)CC(=O)NC2CCCCC2)ccc1O | 0.175 µM (active) |

Test system: not listed separately
Assay: cells
Format: functional
Conditions: not given

| Compound | IC50 |
| --- | --- |
| Cc1oc(=O)c(NC(=O)c2ccccc2)cc1C(=O)c1ccccc1 | > 50 µM (active) |
| CC(=O)c1ccc(OC(=O)c2ccc(-n3nc(C)cc3C)cc2)cc1 | 7.6 µM (active) |
| CC1=NN(C(=O)c2csc(C)c2C)C(O)(C(F)(F)F)C1 (configuration not stated) | 42.3 µM (active) |
| Cc1ccccc1-n1c(C)cc(/C=N/NC(=O)c2ccncc2)c1C | 0.18 µM (active) |

Target: Cytochrome P450 2C19 (Homo sapiens, UniProt P33261)
Sequence (P33261 whole entry): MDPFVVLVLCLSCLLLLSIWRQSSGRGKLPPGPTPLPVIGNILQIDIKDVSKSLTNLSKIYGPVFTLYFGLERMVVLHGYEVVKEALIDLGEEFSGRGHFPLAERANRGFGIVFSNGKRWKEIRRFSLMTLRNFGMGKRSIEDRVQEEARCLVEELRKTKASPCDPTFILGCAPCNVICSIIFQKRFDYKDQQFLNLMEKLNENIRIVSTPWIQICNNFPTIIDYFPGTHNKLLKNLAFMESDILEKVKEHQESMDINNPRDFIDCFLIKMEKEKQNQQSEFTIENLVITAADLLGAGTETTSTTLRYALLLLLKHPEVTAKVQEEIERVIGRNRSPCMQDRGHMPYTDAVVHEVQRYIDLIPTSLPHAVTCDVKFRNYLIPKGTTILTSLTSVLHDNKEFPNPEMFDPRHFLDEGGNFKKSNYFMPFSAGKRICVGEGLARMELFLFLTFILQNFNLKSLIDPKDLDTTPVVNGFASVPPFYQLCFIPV
Assay: Cytochrome panel assay with activity outcomes. Panel member name: p450-cyp2c19 Compounds with AC50 equal or less than 10 uM are considered active
Format: functional
Conditions: read-out: AC50

| Compound | AC50 |
| --- | --- |
| Cc1oc(=O)c(NC(=O)c2ccccc2)cc1C(=O)c1ccccc1 | 8.91 µM (inconclusive) |

Target: T2, Replicative DNA helicase DnaB (Mycobacterium tuberculosis, UniProt P9WMR3)
T2 sequence (P9WMR3 whole entry): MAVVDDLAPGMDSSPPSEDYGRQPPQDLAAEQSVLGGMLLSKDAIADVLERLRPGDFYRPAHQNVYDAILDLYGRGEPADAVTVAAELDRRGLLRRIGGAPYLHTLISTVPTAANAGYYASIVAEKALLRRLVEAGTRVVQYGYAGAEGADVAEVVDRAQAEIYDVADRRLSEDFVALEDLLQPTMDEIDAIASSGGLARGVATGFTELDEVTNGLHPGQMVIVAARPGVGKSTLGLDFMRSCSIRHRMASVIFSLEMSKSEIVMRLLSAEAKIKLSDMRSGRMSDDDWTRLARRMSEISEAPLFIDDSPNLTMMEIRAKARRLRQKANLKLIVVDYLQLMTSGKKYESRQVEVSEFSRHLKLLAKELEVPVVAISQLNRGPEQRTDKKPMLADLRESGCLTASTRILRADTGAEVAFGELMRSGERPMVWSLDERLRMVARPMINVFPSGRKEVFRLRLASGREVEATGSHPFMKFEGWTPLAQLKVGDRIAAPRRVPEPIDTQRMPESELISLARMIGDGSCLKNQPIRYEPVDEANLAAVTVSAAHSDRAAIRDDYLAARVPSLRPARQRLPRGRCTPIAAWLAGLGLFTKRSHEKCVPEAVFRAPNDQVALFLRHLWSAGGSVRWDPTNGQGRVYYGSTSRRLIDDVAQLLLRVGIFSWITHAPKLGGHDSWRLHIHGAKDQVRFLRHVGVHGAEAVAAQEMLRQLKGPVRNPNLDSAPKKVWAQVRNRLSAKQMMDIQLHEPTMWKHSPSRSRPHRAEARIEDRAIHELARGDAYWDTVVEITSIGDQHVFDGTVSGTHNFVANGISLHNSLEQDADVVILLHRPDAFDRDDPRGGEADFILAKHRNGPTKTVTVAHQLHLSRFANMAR
Assay: DnaB intein splicing inhibitors, dose response, biochemical, cell-free fluorescence (AID 449749)
Format: functional
Conditions: not given

| Compound | AC50 |
| --- | --- |
| O=c1[nH]c(CCl)nc2cc(-c3ccc(F)cc3)sc12 | 11.7 µM (active) |

Target: T3, Protein RecA (Mycobacterium tuberculosis, UniProt P9WHJ3)
T3 sequence (P9WHJ3 whole entry): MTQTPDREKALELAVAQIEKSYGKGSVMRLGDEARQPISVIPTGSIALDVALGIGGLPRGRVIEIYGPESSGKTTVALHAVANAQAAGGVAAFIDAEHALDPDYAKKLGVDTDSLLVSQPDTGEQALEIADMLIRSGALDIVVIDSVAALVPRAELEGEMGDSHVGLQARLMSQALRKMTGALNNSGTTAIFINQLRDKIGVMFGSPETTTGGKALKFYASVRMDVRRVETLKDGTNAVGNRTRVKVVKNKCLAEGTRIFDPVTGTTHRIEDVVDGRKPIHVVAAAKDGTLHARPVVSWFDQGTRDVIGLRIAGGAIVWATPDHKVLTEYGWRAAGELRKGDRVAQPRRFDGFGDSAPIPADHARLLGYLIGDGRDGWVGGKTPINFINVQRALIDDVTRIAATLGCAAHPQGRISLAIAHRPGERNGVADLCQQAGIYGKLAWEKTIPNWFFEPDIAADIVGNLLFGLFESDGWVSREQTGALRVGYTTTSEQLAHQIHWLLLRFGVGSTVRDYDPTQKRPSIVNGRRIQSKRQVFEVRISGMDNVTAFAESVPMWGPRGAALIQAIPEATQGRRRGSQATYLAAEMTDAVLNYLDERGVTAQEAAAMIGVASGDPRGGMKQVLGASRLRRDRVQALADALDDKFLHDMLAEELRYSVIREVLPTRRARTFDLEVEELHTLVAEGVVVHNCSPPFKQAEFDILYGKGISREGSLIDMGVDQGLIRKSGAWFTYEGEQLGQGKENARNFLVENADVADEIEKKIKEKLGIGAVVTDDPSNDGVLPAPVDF
Assay: Fluorescence Cell-Free Homogeneous Dose Retest to Identify Inhibitors of RecA-Intein Splicing Activity. [Related pubchem assays (depositor defined):AID2097, AID2223, AID489010, AID492950]
Format: functional
Conditions: not given

| Compound | EC50 |
| --- | --- |
| O=c1[nH]c(CCl)nc2cc(-c3ccc(F)cc3)sc12 | 5.66 µM (active) |

Target: T4, Rac GTPase-activating protein 1 (Homo sapiens, UniProt Q9H0H5)
T4 sequence (Q9H0H5 whole entry): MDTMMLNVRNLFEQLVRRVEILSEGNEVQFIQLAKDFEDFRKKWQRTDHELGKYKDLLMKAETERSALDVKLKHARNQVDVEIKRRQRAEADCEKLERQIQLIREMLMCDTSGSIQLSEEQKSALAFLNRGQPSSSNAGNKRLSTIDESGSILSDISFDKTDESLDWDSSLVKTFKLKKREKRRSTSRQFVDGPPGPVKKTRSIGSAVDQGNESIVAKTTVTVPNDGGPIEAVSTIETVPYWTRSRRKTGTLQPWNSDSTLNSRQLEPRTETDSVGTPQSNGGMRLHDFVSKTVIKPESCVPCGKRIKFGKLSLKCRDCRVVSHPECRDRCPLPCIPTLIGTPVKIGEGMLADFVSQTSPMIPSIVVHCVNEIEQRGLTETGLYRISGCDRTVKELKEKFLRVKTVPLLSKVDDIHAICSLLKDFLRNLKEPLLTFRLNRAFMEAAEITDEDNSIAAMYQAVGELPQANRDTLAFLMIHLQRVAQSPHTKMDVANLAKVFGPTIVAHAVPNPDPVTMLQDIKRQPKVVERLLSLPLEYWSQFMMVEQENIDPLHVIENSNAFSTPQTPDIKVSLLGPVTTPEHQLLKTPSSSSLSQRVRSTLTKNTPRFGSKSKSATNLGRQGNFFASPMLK
Assay: blockers of MgcRacGAP-driven Rac1 GTP hydrolysis – biochemical, ADP Hunter fluorescence, primary and confirmatory, confirmation (AID 624330)
Format: functional
Conditions: not given

| Compound | IC50 |
| --- | --- |
| CN(C)S(=O)(=O)c1cccc(NC(=O)CNCC2CCCCC2)c1 | 115 µM (active) |
| O=C(Oc1ccc(N(C(=O)c2ccncc2)S(=O)(=O)c2cccs2)cc1)c1ccncc1 | 86 µM (active) |
| CN(C)S(=O)(=O)c1cc(NC(=O)CNCCN2CCOCC2)ccc1Cl | 154 µM (active) |
| COc1cc(-c2nc3ccccn3c2/N=C/c2cc(OC)c(O)cc2Cl)ccc1O | 69.7 µM (active) |
| C/C(CC(=O)Nc1ccc(N(C)C)cc1)=N\NC(=O)c1ccc(F)cc1 | 47.4 µM (active) |
| COc1cc(/C=N/NC(=O)CC(=O)NC2CCCCC2)ccc1O | 51.6 µM (active) |

Target: Cytochrome P450 3A4 (Homo sapiens, UniProt P08684);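 note: CYP3A4 tested as one member of a cytochrome P450 panel screen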
Sequence (P08684 whole entry): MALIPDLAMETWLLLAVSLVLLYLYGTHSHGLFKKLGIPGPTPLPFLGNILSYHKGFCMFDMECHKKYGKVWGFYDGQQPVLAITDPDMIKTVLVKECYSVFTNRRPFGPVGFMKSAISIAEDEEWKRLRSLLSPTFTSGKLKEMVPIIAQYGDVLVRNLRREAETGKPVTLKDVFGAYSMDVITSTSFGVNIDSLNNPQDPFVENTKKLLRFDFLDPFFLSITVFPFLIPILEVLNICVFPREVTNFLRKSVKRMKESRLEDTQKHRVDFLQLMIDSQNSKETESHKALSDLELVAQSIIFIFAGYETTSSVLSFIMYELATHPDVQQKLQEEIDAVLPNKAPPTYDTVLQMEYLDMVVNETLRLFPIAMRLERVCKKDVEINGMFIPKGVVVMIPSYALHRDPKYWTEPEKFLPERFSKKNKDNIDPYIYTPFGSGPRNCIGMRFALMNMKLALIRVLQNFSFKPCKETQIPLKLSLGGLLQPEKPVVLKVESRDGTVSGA
Assay: not given
Conditions: not given

| Compound | AC50 |
| --- | --- |
| Cc1ccc(NC(=O)N/C=C/c2ccco2)cc1C | 12.6 µM (inconclusive) |
